Results reported in article PMC12754617, “Ruthenium-enhanced curcumin derivatives target tumor growth and cancer-related inflammation in head and neck cancer models” (Frontiers in Oncology, 2025).
In brackets after ≈: the same amount, converted by molar mass.

How the values were obtained:
[1] = system: NF-κB in THP1-Blue NF-κB cells; assay: NF-κB activity assay (SEAP reporter, LPS-induced); type: cell-based; details: 20 μM, LPS 10 ng/mL
Method: THP1-Blue NF-κB cells, NF-κB secreted embryonic alkaline phosphatase (SEAP) reporter monocytes (InvivoGen, USA), were assayed after 20–24 h of incubation following the manufacturer’s protocol. Briefly, cells were seeded at 1 × 10^6 cells/mL in RPMI medium in 96-well plates (180 μL) and treated with complex 3 or 4, Lipopolysaccharide (LPS) (10 ng/mL; […] The next day, NF-κB activation was assessed via the secretion of SEAP. Supernatants (20 μL) were transferred to 96-well plates, and 180 μL of Quanti-Blue was added. Plates were incubated for 2 h at 37°C, and absorbance was measured at 600 nm using an […] 200 PRO microplate reader (TECAN, Switzerland).

[2] = system: THP1-Blue NF-κB cells; assay: MTT viability assay of THP1-Blue NF-κB cells; type: cell-based; details: concentrations of the NF-κB activity assay, overnight
Method: A total of 20 μL of sterile filtered MTT (Sigma-Aldrich, Merck, Germany) solution (5 mg/mL in PBS) was added to the remaining overnight culture of THP1-Blue NF-κB cells from the above NF-κB activity assay in 96-well plates, which were incubated at 37°C (see above). After 2 h of incubation at 37°C, the supernatant was removed, and the purple formazan product generated in the cells was dissolved by the addition of 100 μL of DMSO to each well. The plates were then gently shaken for 30 s at room temperature to dissolve the precipitates. The absorbance was measured at 570 nm using an […] 200 PRO microplate reader (TECAN, Switzerland) ([43]).

[3] = biological target: T1, IKKβ (Homo sapiens, UniProt O14920); assay: IKKβ inhibition assay (IKKβ Kinase Assay Kit); type: biochemical; details: fivefold higher concentration than 1 μM
T1 construct: purchased BPS Bioscience
T1 sequence (O14920 1-756): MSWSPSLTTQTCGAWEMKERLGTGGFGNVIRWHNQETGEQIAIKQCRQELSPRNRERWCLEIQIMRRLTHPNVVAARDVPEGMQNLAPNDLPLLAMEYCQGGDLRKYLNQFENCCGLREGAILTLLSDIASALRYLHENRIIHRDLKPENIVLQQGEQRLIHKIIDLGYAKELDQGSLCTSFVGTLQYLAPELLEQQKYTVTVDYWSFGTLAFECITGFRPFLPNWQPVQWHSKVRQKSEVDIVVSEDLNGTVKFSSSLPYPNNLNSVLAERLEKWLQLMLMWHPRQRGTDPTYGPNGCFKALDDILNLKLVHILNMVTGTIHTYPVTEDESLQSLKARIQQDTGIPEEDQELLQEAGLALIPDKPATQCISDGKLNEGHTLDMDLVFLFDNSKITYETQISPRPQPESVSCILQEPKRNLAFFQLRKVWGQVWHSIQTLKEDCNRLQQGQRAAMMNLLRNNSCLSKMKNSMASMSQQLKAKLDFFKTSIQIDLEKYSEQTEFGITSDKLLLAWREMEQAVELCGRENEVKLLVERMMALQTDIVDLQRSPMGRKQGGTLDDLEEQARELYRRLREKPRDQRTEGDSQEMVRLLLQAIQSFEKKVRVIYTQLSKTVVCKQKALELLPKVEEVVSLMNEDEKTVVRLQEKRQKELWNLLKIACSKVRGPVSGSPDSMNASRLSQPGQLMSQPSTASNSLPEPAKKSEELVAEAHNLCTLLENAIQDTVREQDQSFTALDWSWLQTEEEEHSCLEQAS
Method: IκB kinase beta (IKKβ) inhibition was determined using the IKKβ Kinase Assay Kit (BPS Bioscience, San Diego, California, USA). […] Kinase-Glo® MAX (Promega, #V6071, Madison, Wisconsin, USA) was used as the detection reagent, with an incubation time of 15 min. Blank values were subtracted from all measurements. Luminescence was measured with an integration time of 1 s using a Spark Microplate Reader (Tecan, Switzerland).

[4] = system: CAL 27 cell line; design: method as in PMID 32060973, PMID 32099333; details: CAL 27 cell line ref 46, 47; cited from earlier work
[5] = system: SCC-9 cell line; design: method as in PMID 32628350, PMID 25450696; details: SCC-9 cell line ref 48, 49; cited from earlier work
[6] = system: FaDu cell line; design: method as in PMID 32628350; details: FaDu cell line ref 48; cited from earlier work
[7] = system: Detroit 562 cell line; design: method as in PMID 32121279, PMID 19317462; details: Detroit 562 cell line ref 50, 51; cited from earlier work
[8] = system: Hep-2 cell line; design: method as in PMID 23513724; details: HPV-positive Hep-2 cell line ref 52; cited from earlier work
[9] = system: KB cell line; design: method as in PMID 36278627; details: 48 h of treatment ref 53; cited from earlier work
[10] = system: HGF; design: method as in PMID 34657625; details: concentration range 0.1–20 μM ref 54; cited from earlier work
[11] = system: A549 cell line; design: method as in PMID 32598409; details: A549 cell line ref 33; cited from earlier work
[12] = system: CAL 27 cell line; details: cited from earlier work
[13] = system: CAL 27 cell line; design: method as in PMID 32099333, PMID 25767602; details: CAL 27 cell line ref 47, 55; cited from earlier work
[14] = system: SCC-9 cell line; design: method as in PMID 25450696; details: SCC-9 cell line ref 49; cited from earlier work
[15] = system: FaDu cell line; design: method as in PMID 25767602; details: FaDu cell line ref 55; cited from earlier work
[16] = system: Hep-2 cell line; details: Hep-2 cell line ref 56; cited from earlier work
[17] = system: OSCC cells; design: method as in PMID 32391111; details: Ohnishi et al. ref 57; cited from earlier work

**Q.** With `COc1cc(/C=C/C(=O)CC(=O)/C=C/c2ccc(O)c(OC)c2)ccc1O` [Curcumin, curcumin] as the molecule, how does the “Reduction of LPS-induced NF-κB activation” value [1] read?
**A.** approximately 60%

**Q.** What about the “Cytotoxicity in THP1-Blue NF-κB cells (MTT)” value [2] of the same molecule?
**A.** Neither complex 3, complex 4, nor curcumin exhibited significant cytotoxicity

**Q.** And the “Inhibition of IKKβ activity” value [3]?
**A.** approximately 30%

**Q.** What about the IC50 [4] of the same molecule?
**A.** 49.9 µM

**Q.** And the IC50 [5]?
**A.** 40.9 µM

**Q.** What about the IC50 [6] of the same molecule?
**A.** 24.8 µM

**Q.** And the Concentration showing cytotoxicity [7]?
**A.** around 20 μM

**Q.** And the IC50 [8]?
**A.** ~50 µM

**Q.** What about the IC50 [9] of the same molecule?
**A.** 8.84 µg/mL (≈ 24 µM)

**Q.** What about the “Effect on cell viability” value [10] of the same molecule?
**A.** did not significantly affect cell viability

**Q.** What about the IC50 [11] of the same molecule?
**A.** 13.1 µM

**Q.** And the “Concentration reducing cell migratory capacity” value ([12]; CAL 27 cell line ref 47, 55)?
**A.** 50 µM

**Q.** What about the “Concentration significantly inhibiting migration” value ([12]; CAL 27 cells, Ma et al. ref 47) of the same molecule?
**A.** 100 µM

**Q.** And the “Concentration inhibiting colony formation” value [13]?
**A.** ≥ 12.5 µM

**Q.** What about the “Concentration suppressing colony formation” value [14] of the same molecule?
**A.** 40 µM

**Q.** What about the “Concentration suppressing colony formation” value [15] of the same molecule?
**A.** 12.5 µM

**Q.** What about the “Concentration with significant inhibition of colony formation and cell migration” value [16] of the same molecule?
**A.** 20 µM

**Q.** And the Concentration inhibiting migration [17]?
**A.** 15 µM
